Assay results from US20260344662A1, “METHOD FOR INDUCING HIGH-TEMPERATURE STRESS TOLERANCE IN PLANTS” (AJINOMOTO CO., INC., priority 2023, published 2026).

Assays:
[1] = tested on: plant male sterility caused by high temperatures; conditions: in vivo; cited from earlier work
[2] = tested on: SLHsFA2; test: Example 3: expression of heat stress tolerance-related gene SLHsFA2 (real-time PCR); format: in vivo, tomato (cultivar: Regina); conditions: 5 mM Val; 10 μM IAA; 50 μM PAA; combinations 5 mM Val + 10 μM IAA, 5 mM Val + 50 μM PAA; 24 hours after spraying; n=3; relative to Actin
Procedure: (§1) Plants of tomato (cultivar: Regina) were used in evaluation of the genes.
(§2) Two tomato seeds were sown in a slit pot having a diameter of 10.5 cm (10.5 cm (top diameter)×8.8 cm (height)) filled with potting soil, and cultivated in a biotron at a temperature of 23 °C, with a light period of 14 hours (6:00 to 20:00) and a dark period of 10 hours (20:00 to 6:00). As the potting soil, a mixture of Kumiai Nippi Engei Baido No. 1 (Nihon Hiryo Co., Ltd.) and vermiculite at 3:1 (volume ratio) was used. After one week, thinning was performed to leave one plant, and cultivation was continued.
(§3) The material was dissolved in water before use. Twenty-five days after the sowing, 0.1% spreading agent “Approach BI” (Kao Corporation) was added to the material treatment solution, and the resulting solution was sprayed over the entire plant. For each treatment group, three tomato plants were used, and 2 mL of the treatment solution per plant was sprayed. Twenty-four hours after the spraying, a 1.5 cm×1.5 cm section was collected as a sample from the second true leaf.
(§4) From each leaf sample collected from tomato, RNA was extracted using a Maxwell™ RSC Plant RNA Kit (Promega) according to the manufacturer's instructions. Subsequently, single-stranded cDNA was synthesized from the extracted RNA using a ReverTra Ace™ qPCR RT Master Mix (TOYOBO). As genes associated with heat stress tolerance in tomato, the following two genes were evaluated: Heat shock factor A2 (HsFA2) and Ascorbate peroxidases (APX). Using the above cDNA as a template, real-time PCR was performed using the primers shown in Table 6, and the expression level of each gene was calculated as a relative expression level with respect to the Actin gene.

[3] = tested on: tomato; test: Example 1: heat stress tolerance of tomato (number of fruits) with Val and/or IAA; format: in vivo, cultivar Regina; conditions: heat stress max 35 °C; foliar spray; Val 5 mM or 10 mM; IAA 10 μM; Val 5 mM & IAA 10 μM
Procedure: In the present Example, Val (valine) and IAA (indole-3-acetic acid) were applied to tomato either alone or in combination, and heat stress tolerance-inducing effects were evaluated.
• Tomato: cultivar Regina
Two tomato seeds were sown in a pot (Sakata) having a soil diameter of 10.5 cm and containing 350 g of a mixed soil of potting soil (Kumiai No. 1) and vermiculite (potting soil:vermiculite=3:1 (v:v)). Two weeks later, the tomato plants were thinned to leave one plant. Thirty-five days after the sowing, soil fertilization was performed with 100 mL of a 500-fold diluted Hyponex solution. Water supplementation was performed as appropriate.
The non-heat stress treatment+water treatment group (No. 1) was used as a positive control. The heat stress treatment groups included five treatment groups (Nos. 2 to 6). The material treatment and the heat treatment were performed in two separate sets. The first set of material treatment was performed 40 days after the sowing, when flowering of the tomato plants had started. The second set of material treatment was performed 46 days after the sowing. The material treatment was performed by preparing an aqueous material solution containing 0.1% spreading agent “Approach BI”, and performing foliar spraying. To each tomato plant, 6 mL of the aqueous material solution was sprayed. […]

[4] = tested on: SLAPX; test: Example 3: expression of heat stress tolerance-related gene SLAPX (real-time PCR); format: in vivo, tomato (cultivar: Regina); conditions: 5 mM Val; 10 μM IAA; 50 μM PAA; combinations 5 mM Val + 10 μM IAA, 5 mM Val + 50 μM PAA; 24 hours after spraying; n=3; relative to Actin
Procedure: as §1, §2, §3, §4

[5] = tested on: tomato; test: Example 2: heat stress tolerance of tomato (number and weight of fruits) with Val and/or PAA; format: in vivo, cultivar Regina; conditions: Val 5 mM, PAA 10 μM
Procedure: In the present Example, Val (valine) and PAA (phenylacetic acid) were applied to tomato plants individually or in combination, and their heat stress tolerance-inducing effects were evaluated.
Same as in Example 1, except that the five treatment groups shown in Table 3 were evaluated under the cultivation conditions shown in Table 4 (the maximum high temperature was 37 °C).

[6] = tested on: tomato; test: Example 4: tomato pot test, harvested fruit weight under heat stress; format: in vivo, tomato: Home Momotaro, rootstock (Boranchi); conditions: PAA 10 μM, Val 5 mM, PAA higher than Val
Procedure: • Tomato: Home Momotaro, rootstock (Boranchi).
Sandy loam (SL) was filled into a planter at 0.18 m^2/planter, and two tomato plants were planted therein. As a fertilizer, OK-F-1 (OAT Agrio Co., Ltd.) was used. The fertilizer was diluted 2000-fold with water, and applied as appropriate at 2000 mL/plant/application. Topping was performed with one leaf left above the fourth truss, and axillary buds were removed as appropriate. Cultivation was performed in a glasshouse under natural light.
Five treatment groups were evaluated (Table 7). The water-treated non-heat stress treatment group was used as a positive control. The other four treatment groups were subjected to heat treatment. The heat treatment was performed twice. The first treatment was performed for 10 days at the pre-flowering stage of the first truss, and the second treatment was performed for 10 days at the flowering stage of the fourth truss. The heat treatment was performed by opening and closing side windows and roof windows of the glasshouse (with a target maximum temperature of 35 °C in the glasshouse).
The material was applied by spraying onto stems and leaves at 50 mL per plant on the start day of the heat treatment and three days thereafter. To each material, a spreading agent (Approach BI (Kao)) was added to a final concentration of 0.05%.
Harvesting and examination were performed 11 times until the fourth truss matured. […]

[7] = tested on: rice; test: Example 5: rice pot test, seed weight and seed fertility under heat stress; format: in vivo, cultivar Nipponbare; conditions: PAA 10 μM; for fertile seed weight compared to water treatment (in words) / seed fertility compared to water treatment (in words) / total seed weight compared to water treatment (in words) / Fertile seed weight, relative value to heat treatment + water treatment group / Fertility (seed fertility), relative value to heat treatment + water treatment group / Total seed weight, relative value to heat treatment + water treatment group: Val 5 mM; for Fertile seed weight, relative value to heat treatment + water treatment group / Fertility (seed fertility), relative value to heat treatment + water treatment group / Total seed weight, relative value to heat treatment + water treatment group: heat treatment (38 °C), water = 100%
Procedure: • Rice cultivar: Nipponbare
Prior to sowing, rice seeds were sterilized with 25% antiformin and 70% ethanol. Filter paper was placed in a Petri dish, and rice seeds were placed on the filter paper. The filter paper was sufficiently wetted with sterile water, and the rice seeds were germinated in a dark place at 25 °C. Six days after the sowing, the germinated rice seeds were planted in a cell tray. As the potting soil in the cell tray, a mixed soil of Kumiai Baido No. 1: vermiculite=7:3 (v/v) was used. The rice plants planted in the cell tray were cultivated in a chamber under the following conditions: 14 h/light period at 28 °C and 10 h/dark period at 22 °C.
On June 20, rice seedlings cultivated in the chamber for 18 days were transplanted to magnet pots, and cultivated until harvest in an outdoor cultivation water tank apparatus. In the magnet pots, 2.3 kg of a potting soil of Kumiai Baido No. 1: vermiculite=7:3 (v/v) was used, and two rice seedlings were transplanted to each pot. During the cultivation, water was appropriately managed. From one month after the transplantation, additional fertilizer was applied with ammonium sulfate and Hyponex three times at intervals of one week.
At the heading stage, one week after the start of heading of rice, material spraying and heat treatment were each performed twice at intervals of one week. The heat treatment was performed about 16 hours after the spraying of a material. Five pots were included in each treatment group as replicates. The material was diluted with water to prepare a treatment solution, and 0.1% spreading agent “Approach BI” (Kao Corporation) was added to the treatment solution, followed by spraying 60 mL per pot of the prepared aqueous material solution onto the whole plants. For the heat treatment, the rice plants were placed in a mini-house for 6 hours from 10:00 to 16:00, and the temperature was about 37 °C to 39 °C. After completion of the heat treatment, the plants were further cultivated, and on October 8, […] after transplanting to Wagner pots, an aboveground part of each plant was cut and harvested.
The cut aboveground parts of the plants, including seeds, were dried for 15 days, and the total seed weight, the fertile seed weight, and the seed fertility were examined. The fertile seed weight is the weight of seeds obtained by removing sterile seeds of empty husks using a threshing machine. From the total seeds, 10 mL of seeds (about 100 to 150 grains) was randomly taken out into a 50-mL Falcon tube, and fertile seeds and sterile seeds were separated from each other, followed by counting their numbers. The proportion (percentage) of the fertile seeds to the total number of seeds was defined as the seed fertility.

[8] = tested on: plants; conditions: in vivo; cited from earlier work

| Compound | reversal of plant male sterility caused by high temperatures [1] | expression of SLHsfA2 compared to Mock (water) [2] | number of tomato fruits compared to heat stress treatment+water treatment group [3] | expression of SLAPX compared to Mock (water) [4] | number of tomato fruits compared to heat stress treatment+water treatment group [5] | harvested fruit weight compared to water-sprayed heat stress group [6] | increase in seed fertility ([7]; Val 5 mM & PAA 10 μM, heat treatment) [%] | fertile seed weight compared to water treatment (in words) ([7]; heat treatment) | seed fertility compared to water treatment (in words) ([7]; heat treatment) | total seed weight compared to water treatment (in words) ([7]; heat treatment) | Fertile seed weight, relative value to heat treatment + water treatment group [7] [%] | Fertility (seed fertility), relative value to heat treatment + water treatment group [7] [%] | Total seed weight, relative value to heat treatment + water treatment group [7] [%] | induction of heat stress tolerance in plants [8] |
| --- | --- | --- | --- | --- | --- | --- | --- | --- | --- | --- | --- | --- | --- | --- |
| O=C(O)Cc1c[nH]c2ccccc12 [IAA, indole-3-acetic acid] | function of reversing plant male sterility caused by high temperatures | no difference in expression | markedly increased | no difference in expression | – | – | – | – | – | – | – | – | – | – |
| O=C(O)Cc1ccccc1 [PAA, phenylacetic acid] | – | no difference in expression | – | no difference in expression | no large difference | exceeded the water-sprayed group | ≥ 20 | neither the treatment with Val alone nor the treatment with PAA alone showed significant differences | increased the seed fertility | neither the treatment with Val alone nor the treatment with PAA alone showed significant differences | 105.6 | 110.8 | 101.8 | – |
| CC(C)[C@H](N)C(=O)O [Val, L-valine] | – | no difference in expression | markedly increased | no difference in expression | no large difference | exceeded the water-sprayed group | – | neither the treatment with Val alone nor the treatment with PAA alone showed significant differences | increased the seed fertility | neither the treatment with Val alone nor the treatment with PAA alone showed significant differences | 98.7 | 123.9 | 93.9 | function of inducing heat stress tolerance in plants |
